According to PubChem BioAssay (NCI):
Where “and” joins values, the source holds several entries; their conditions need not be identical. Equal entries are not always repeated.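 Protocol summary: plate cells (96-well), add compound at 5 concentrations, incubate 48 h, interpolate endpoints linearly. GI50 marks 50% less growth. The concentration for full growth arrest is given as TGI.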

Tests used:
Experiment in all cases: growth of human tumour cells (NCI), 48 h
HS 578T breast = tested on: HS 578T breast
HOP-62 NSCLC = tested on: HOP-62 NSCLC
MCF7 breast = tested on: MCF7 breast
HOP-92 NSCLC = tested on: HOP-92 NSCLC
COLO 205 colon = tested on: COLO 205 colon
MOLT-4 leukemia = tested on: MOLT-4 leukemia
OVCAR-3 ovarian = tested on: OVCAR-3 ovarian
NCI-H460 lung = tested on: NCI-H460 lung
TK-10 renal = tested on: TK-10 renal
MALME-3M melanoma = tested on: MALME-3M melanoma

| Structure (SMILES) | GI50 (HS 578T breast) | TGI (HS 578T breast) | GI50 (HOP-62 NSCLC) | TGI (HOP-62 NSCLC) | GI50 (MCF7 breast) | TGI (MCF7 breast) | GI50 (HOP-92 NSCLC) [µM] | TGI (HOP-92 NSCLC) | GI50 (COLO 205 colon) | TGI (COLO 205 colon) | GI50 (MOLT-4 leukemia) | TGI (MOLT-4 leukemia) [µM] | GI50 (OVCAR-3 ovarian) | TGI (OVCAR-3 ovarian) | GI50 (NCI-H460 lung) | TGI (NCI-H460 lung) | GI50 (TK-10 renal) | TGI (TK-10 renal) | GI50 (MALME-3M melanoma) | TGI (MALME-3M melanoma) |
| --- | --- | --- | --- | --- | --- | --- | --- | --- | --- | --- | --- | --- | --- | --- | --- | --- | --- | --- | --- | --- |
| CCOC1Oc2ccccc2C(=O)/C1=C\Nc1ccc(C(=O)O)c(O)c1 (centres undefined) | 35 µM | 90 µM | 32.4 µM | > 100 µM | 29.9 µM | > 100 µM | 19.6 | 60.6 µM | 23.9 µM | 56.5 µM | > 100 µM | > 100 | 25.2 µM | 56.3 µM | 38.9 µM | > 100 µM | 22.8 µM | 61.3 µM |  |  |
| COc1ccc2[nH]cc(C3(c4c[nH]c5ccc(OC)cc45)C(=O)Nc4ccc(Cl)cc43)c2c1 | 5.38 µM | > 100 µM | 5.18 µM | 21.3 µM | 3.12 µM | 42.8 µM | 2.2 | 10.3 µM | 1.88 µM | 3.53 µM | 4.12 µM | 21.1 | 2.99 µM | 8.5 µM | 3.18 µM | 10.1 µM |  |  | 5.02 µM | 46.5 µM |
| O=C(CS(=O)c1nc2ccccc2nc1-c1ccccc1)Nc1ccc(Cl)cc1 (centres undefined) |  | 6.88 µM | 23.2 µM | 71.8 µM | 38.7 µM | > 100 µM | 12.3 | 49.2 µM | 23.4 µM | 58.6 µM | 24.4 µM | 69.3 | 21.5 µM | 51.2 µM | 18.6 µM | 47.7 µM | 27.8 µM | 82.7 µM | 19.1 µM | 46.7 µM |
| CC(=O)OCC1OC([S-])C(OC(C)=O)C(OC(C)=O)C1OC(C)=O.[Au+].c1ccc(CN2[CH-]N(Cc3ccccc3)C(c3ccccc3)=C2c2ccccc2)cc1 | 2.62 µM and 0.396 µM | 8.56 µM and 7.74 µM | 4.56 µM and 1.11 µM | 19.4 µM and 4.59 µM | 1.65 µM and 0.827 µM | 3.52 µM and 2.04 µM |  | 3.93 µM and 0.437 µM | 3.59 µM and 0.881 µM | 14.3 µM and 2.27 µM | 3.29 µM and 0.399 µM |  | 1.8 µM and 0.444 µM | 3.25 µM and 1.28 µM | 3.71 µM and 0.732 µM | 15.5 µM and 2.42 µM | 2.66 µM and 0.796 µM | 8.34 µM and 3.8 µM | 1.93 µM and 0.278 µM | 4.29 µM and 1.24 µM |
| C=C1C(=O)O[C@H]2[C@H]1CC/C(CNC(=O)C(C)c1ccc(CC(C)C)cc1)=C\CC[C@@]1(C)O[C@@H]21 (some centres undefined) | 2.24 µM | 7.46 µM | 3.07 µM | 12.2 µM | 1.62 µM | 3.68 µM | 1.5 | 2.92 µM | 1.93 µM | 3.83 µM | 2.39 µM | 9.66 | 1.54 µM | 2.95 µM | 1.94 µM | 3.97 µM | 1.66 µM | 3.02 µM | 1.71 µM | 3.36 µM |
| COc1cc2c(cc1OC)-c1c(c3ccc([N+](=O)[O-])cc3c(=O)n1CCCN=[N+]=[N-])C2=O | > 100 µM | > 100 µM | 29.8 µM | > 100 µM | 0.556 µM | > 100 µM |  |  | > 100 µM | > 100 µM | 23.3 µM | > 100 | > 100 µM | > 100 µM | 11.4 µM | > 100 µM | > 100 µM | > 100 µM |  |  |
